Earlier results on two compounds are cited in patent publication US20070264667A1, “Method and system for assaying transferase activity” (priority 2003, published 2007).

For one series, the target named is EGF receptor kinase (Homo sapiens, UniProt P00533). The note with it: ref (22).
In another series the target is IRK (Homo sapiens, UniProt P06213). The note with it: competitive inhibitor of IRK; ref (20); read-out: reported Km.

Chain of EGF receptor kinase (P00533 25-1210): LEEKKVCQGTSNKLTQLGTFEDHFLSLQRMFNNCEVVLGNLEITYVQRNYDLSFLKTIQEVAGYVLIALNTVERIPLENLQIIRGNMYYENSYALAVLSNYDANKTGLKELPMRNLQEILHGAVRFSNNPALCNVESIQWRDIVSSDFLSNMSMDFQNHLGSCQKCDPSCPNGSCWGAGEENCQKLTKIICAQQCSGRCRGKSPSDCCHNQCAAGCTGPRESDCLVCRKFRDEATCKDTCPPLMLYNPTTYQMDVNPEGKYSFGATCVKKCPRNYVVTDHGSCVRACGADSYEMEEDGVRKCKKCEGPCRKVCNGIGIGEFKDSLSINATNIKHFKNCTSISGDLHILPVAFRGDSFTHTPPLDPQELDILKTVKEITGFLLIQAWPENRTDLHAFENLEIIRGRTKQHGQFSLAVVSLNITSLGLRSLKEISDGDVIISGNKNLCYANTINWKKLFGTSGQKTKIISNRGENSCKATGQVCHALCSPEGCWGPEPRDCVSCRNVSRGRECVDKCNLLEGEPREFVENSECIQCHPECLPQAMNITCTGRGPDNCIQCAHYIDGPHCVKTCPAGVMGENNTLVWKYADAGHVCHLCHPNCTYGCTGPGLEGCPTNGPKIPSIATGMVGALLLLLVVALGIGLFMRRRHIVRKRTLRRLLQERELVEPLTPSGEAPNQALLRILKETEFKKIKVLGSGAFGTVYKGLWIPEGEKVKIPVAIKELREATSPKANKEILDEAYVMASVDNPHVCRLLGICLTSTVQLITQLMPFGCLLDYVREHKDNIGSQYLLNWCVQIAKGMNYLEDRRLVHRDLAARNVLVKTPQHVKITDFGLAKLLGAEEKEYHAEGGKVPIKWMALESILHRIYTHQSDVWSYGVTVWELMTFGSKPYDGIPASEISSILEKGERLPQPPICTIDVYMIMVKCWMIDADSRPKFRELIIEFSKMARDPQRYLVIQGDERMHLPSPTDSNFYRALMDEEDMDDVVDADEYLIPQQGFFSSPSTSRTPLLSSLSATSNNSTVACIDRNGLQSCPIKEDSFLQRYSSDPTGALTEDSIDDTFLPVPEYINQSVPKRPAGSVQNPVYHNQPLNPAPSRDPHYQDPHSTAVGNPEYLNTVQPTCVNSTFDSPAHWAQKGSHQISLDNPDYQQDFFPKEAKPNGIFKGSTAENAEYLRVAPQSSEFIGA

`O=C(O)c1cc(N(Cc2ccccc2O)Cc2cc(O)ccc2O)ccc1O` [Lavendustin A]: the Ki at EGF receptor kinase was 11 nM.

On to “1RS727: peptide inhibitor of IRK with the sequence KKKLPATGDYMNMSPVGD”, for which, in the series with IRK, the Km was around 24 µM.
